Test results published in ChEMBL document CHEMBL1201862, “PubChem BioAssay data set” (2004).
One block for each compound: values may come before it. Active and inactive are the calls of the source.

Legend:
[1] = target: T1, Kappa-type opioid receptor (Homo sapiens, UniProt P41145); test: KOR agonist analogs, arrestin-GFP redistribution, SAR follow-up, imaging, image-based, set 3 (AID 488833); assay type: functional
[2] = target: Mu-type opioid receptor (Homo sapiens, UniProt P35372); test: SAR Analysis of Agonists of the MOR Receptor using an Image-Based Assay - Set 3. [Related pubchem assays (depositor defined):AID1777, AID1785, AID1786, AID1966, AID2133, AID2136, AID2284, AID2285, AID2352]; assay type: functional
[3] = target: Delta-type opioid receptor (Homo sapiens, UniProt P41143); test: SAR Analysis of Agonists of the DOR Receptor using an Image-Based Assay - Set 3. [Related pubchem assays (depositor defined):AID1777, AID1786]; assay type: functional
[4] = target: T1, Kappa-type opioid receptor; test: SAR analysis of small molecule agonists of the kappa opioid receptor via a luminescent beta-arrestin assay - Set 3. [Related pubchem assays (depositor defined):AID1777, AID1785, AID1786, AID1966, AID2133, AID2136, AID2284, AID2500]; assay type: functional
[5] = target: Signal transducer and activator of transcription 3 (Homo sapiens, UniProt P40763); test: STAT3 inhibitors, late-stage profile, late-stage follow-up, cell-based, STAT1 panel, qPCR, cytotoxicity, panel member STAT3 Inhibition (AID 2078)
[6] = target: Signal transducer and activator of transcription 1-alpha/beta (Homo sapiens, UniProt P42224); test: STAT3 inhibitors, late-stage profile, late-stage follow-up, cell-based, STAT1 panel, qPCR, cytotoxicity, panel member STAT1 Inhibition (AID 2078)
[7] = target: Voltage-dependent T-type calcium channel subunit alpha-1H (Homo sapiens, UniProt O95180); test: Cav3.2 T-type channel blockers, cell-based, SynthLib3 library, HEK293 Cav3.2, fluorescence (AID 493041); assay type: functional
[8] = target: Potassium voltage-gated channel subfamily KQT member 2 (Rattus norvegicus, UniProt O88943); test: KCNQ2 channel activators, analog series, SAR follow-up, automated patch clamp, KCNQ2-CHO cells (AID 493113); assay type: functional
[9] = target: T2, Tyrosine-protein phosphatase non-receptor type 7 (Homo sapiens, UniProt P35236); assay type: functional
T2 sequence (P35236 whole entry): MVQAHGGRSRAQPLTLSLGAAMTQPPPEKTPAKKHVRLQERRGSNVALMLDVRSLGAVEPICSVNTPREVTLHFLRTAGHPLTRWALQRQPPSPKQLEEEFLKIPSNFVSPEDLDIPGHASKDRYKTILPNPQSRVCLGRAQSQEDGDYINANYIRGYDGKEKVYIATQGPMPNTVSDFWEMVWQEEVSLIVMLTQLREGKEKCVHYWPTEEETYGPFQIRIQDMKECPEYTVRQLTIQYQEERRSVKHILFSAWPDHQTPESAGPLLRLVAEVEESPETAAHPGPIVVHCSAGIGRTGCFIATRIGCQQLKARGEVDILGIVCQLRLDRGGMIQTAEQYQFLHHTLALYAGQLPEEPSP

[10] = target: T3, Tyrosine-protein phosphatase non-receptor type 22 (Homo sapiens, UniProt Q9Y2R2); assay type: functional
T3 sequence (Q9Y2R2 whole entry): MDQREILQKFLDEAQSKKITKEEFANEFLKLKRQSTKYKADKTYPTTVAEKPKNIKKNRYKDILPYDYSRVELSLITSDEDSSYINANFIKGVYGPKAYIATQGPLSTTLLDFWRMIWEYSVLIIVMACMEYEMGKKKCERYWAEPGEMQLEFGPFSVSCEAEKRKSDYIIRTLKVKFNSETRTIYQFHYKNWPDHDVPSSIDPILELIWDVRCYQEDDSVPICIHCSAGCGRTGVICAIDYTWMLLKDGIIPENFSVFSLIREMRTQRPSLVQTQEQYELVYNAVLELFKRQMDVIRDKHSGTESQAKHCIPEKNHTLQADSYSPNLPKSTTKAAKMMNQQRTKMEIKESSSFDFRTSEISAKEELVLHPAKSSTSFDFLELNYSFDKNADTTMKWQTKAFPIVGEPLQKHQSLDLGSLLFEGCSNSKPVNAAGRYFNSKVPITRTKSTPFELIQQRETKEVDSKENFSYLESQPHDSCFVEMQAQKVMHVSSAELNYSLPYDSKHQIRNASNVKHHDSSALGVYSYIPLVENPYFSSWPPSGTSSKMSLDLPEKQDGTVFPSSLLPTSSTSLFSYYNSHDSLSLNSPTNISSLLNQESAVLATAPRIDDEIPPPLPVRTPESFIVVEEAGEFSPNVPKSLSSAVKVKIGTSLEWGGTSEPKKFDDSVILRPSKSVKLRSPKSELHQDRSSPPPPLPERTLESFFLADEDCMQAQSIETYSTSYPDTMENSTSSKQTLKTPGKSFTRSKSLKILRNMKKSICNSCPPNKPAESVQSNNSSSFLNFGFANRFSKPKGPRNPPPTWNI

[11] = target: T3, Tyrosine-protein phosphatase non-receptor type 22; assay type: functional; remark: listed apart in the source
[12] = target: Sphingosine 1-phosphate receptor 5 (Homo sapiens, UniProt Q9H228); test: Late stage counterscreen assay for S1P4 antagonists: Fluorescence dose response cell-based screening assay for antagonists of the Sphingosine 1-Phosphate Receptor 5 (S1P5). [Related pubchem assays (depositor defined):AID1510, AID1524, AID1692, AID1853, AID2332, AID489009, AID489017]; assay type: functional
[13] = target: Sphingosine 1-phosphate receptor 3 (Homo sapiens, UniProt Q99500); test: Late stage counterscreen assay for S1P4 antagonists: Fluorescence dose response cell-based screening assay for antagonists of the Sphingosine 1-Phosphate Receptor 3 (S1P3). [Related pubchem assays (depositor defined):AID1510, AID1524, AID1692, AID1853, AID2332, AID489009, AID489017]; assay type: functional
[14] = target: Sphingosine 1-phosphate receptor 1 (Homo sapiens, UniProt P21453); test: Late stage counterscreen assay for S1P4 antagonists: Fluorescence dose response cell-based screening assay for antagonists of the Sphingosine 1-Phosphate Receptor 1 (S1P1). [Related pubchem assays (depositor defined):AID1510, AID1524, AID1692, AID1853, AID2332, AID489009, AID489017]; assay type: functional
[15] = target: Sphingosine 1-phosphate receptor 2 (Homo sapiens, UniProt O95136); test: Late stage counterscreen assay for S1P4 antagonists: Fluorescence dose response cell-based screening assay for antagonists of the Sphingosine 1-Phosphate Receptor 2 (S1P2). [Related pubchem assays (depositor defined):AID1510, AID1524, AID1692, AID1853, AID2332, AID489009, AID489017]; assay type: functional
Sphingosine 1-phosphate receptor 2, sequence (O95136 whole entry): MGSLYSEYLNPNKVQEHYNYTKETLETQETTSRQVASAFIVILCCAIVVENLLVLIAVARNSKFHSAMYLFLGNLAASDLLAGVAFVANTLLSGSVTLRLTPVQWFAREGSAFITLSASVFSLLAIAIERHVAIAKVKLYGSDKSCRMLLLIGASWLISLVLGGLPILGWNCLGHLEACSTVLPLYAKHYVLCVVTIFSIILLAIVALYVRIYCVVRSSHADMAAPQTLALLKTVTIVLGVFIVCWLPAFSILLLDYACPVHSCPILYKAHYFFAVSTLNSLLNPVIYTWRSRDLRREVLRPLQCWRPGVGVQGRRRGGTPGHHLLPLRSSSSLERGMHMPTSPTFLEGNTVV

T1 sequence (P41145 whole entry): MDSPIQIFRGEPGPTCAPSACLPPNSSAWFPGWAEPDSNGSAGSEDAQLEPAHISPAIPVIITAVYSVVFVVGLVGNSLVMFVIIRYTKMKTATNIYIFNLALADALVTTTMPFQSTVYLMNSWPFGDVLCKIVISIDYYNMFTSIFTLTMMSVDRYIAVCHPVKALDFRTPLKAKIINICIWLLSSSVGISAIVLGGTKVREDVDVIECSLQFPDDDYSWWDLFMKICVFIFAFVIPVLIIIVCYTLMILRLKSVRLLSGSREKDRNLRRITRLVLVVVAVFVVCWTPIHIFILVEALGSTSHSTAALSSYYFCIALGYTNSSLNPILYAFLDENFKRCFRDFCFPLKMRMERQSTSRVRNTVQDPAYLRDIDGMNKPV
Mu-type opioid receptor, sequence (P35372 whole entry): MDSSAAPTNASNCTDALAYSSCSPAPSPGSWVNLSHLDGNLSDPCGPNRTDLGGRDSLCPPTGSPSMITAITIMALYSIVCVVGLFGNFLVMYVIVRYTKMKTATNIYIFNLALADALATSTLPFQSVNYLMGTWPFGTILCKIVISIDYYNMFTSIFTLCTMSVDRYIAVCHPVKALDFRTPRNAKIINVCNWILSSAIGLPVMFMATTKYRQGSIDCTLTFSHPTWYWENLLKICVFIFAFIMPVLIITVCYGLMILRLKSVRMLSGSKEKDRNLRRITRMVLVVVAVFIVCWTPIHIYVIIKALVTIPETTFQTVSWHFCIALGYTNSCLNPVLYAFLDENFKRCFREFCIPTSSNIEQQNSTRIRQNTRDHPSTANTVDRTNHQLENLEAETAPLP
Sphingosine 1-phosphate receptor 3, sequence (Q99500 whole entry): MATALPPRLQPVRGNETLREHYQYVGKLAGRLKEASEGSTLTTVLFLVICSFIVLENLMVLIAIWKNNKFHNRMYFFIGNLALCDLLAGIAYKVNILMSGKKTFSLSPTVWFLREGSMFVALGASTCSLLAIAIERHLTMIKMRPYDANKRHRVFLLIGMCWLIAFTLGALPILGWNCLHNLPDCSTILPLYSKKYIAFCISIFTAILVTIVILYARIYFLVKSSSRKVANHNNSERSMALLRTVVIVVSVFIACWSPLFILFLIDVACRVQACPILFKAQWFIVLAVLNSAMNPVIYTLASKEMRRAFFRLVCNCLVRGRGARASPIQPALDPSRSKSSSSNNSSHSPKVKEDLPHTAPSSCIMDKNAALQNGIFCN
Sphingosine 1-phosphate receptor 1, sequence (P21453 whole entry): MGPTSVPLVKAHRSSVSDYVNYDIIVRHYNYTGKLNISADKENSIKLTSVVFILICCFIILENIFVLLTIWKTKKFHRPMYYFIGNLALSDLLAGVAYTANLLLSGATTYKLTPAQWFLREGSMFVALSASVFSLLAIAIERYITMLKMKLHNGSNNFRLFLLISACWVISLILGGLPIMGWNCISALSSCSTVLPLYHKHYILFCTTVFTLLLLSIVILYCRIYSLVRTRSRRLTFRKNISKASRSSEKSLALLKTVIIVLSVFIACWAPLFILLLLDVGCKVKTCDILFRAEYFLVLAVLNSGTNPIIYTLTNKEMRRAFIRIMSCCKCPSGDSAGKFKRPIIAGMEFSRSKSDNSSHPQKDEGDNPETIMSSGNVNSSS
Signal transducer and activator of transcription 3, sequence (P40763 whole entry): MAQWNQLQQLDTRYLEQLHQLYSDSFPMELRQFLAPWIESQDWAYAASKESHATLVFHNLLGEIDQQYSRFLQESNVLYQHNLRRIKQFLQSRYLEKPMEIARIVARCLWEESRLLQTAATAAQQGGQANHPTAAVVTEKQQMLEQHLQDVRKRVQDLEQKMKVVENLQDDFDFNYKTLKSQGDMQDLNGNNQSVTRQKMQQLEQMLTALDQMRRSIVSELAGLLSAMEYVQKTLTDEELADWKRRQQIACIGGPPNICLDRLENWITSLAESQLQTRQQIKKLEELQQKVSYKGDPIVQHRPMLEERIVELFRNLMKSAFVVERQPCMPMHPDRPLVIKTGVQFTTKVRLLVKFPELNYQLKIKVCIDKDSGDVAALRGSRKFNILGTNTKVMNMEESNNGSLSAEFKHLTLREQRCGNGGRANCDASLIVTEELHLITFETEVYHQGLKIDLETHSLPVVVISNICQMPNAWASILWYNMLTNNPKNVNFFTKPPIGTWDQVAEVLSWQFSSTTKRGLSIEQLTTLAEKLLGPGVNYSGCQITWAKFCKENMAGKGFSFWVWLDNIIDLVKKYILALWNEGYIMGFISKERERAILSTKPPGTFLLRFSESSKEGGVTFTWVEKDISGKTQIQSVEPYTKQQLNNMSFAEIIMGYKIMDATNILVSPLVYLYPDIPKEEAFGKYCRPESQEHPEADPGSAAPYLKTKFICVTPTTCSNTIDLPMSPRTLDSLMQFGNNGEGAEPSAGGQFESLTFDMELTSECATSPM
Voltage-dependent T-type calcium channel subunit alpha-1H, sequence (O95180 whole entry): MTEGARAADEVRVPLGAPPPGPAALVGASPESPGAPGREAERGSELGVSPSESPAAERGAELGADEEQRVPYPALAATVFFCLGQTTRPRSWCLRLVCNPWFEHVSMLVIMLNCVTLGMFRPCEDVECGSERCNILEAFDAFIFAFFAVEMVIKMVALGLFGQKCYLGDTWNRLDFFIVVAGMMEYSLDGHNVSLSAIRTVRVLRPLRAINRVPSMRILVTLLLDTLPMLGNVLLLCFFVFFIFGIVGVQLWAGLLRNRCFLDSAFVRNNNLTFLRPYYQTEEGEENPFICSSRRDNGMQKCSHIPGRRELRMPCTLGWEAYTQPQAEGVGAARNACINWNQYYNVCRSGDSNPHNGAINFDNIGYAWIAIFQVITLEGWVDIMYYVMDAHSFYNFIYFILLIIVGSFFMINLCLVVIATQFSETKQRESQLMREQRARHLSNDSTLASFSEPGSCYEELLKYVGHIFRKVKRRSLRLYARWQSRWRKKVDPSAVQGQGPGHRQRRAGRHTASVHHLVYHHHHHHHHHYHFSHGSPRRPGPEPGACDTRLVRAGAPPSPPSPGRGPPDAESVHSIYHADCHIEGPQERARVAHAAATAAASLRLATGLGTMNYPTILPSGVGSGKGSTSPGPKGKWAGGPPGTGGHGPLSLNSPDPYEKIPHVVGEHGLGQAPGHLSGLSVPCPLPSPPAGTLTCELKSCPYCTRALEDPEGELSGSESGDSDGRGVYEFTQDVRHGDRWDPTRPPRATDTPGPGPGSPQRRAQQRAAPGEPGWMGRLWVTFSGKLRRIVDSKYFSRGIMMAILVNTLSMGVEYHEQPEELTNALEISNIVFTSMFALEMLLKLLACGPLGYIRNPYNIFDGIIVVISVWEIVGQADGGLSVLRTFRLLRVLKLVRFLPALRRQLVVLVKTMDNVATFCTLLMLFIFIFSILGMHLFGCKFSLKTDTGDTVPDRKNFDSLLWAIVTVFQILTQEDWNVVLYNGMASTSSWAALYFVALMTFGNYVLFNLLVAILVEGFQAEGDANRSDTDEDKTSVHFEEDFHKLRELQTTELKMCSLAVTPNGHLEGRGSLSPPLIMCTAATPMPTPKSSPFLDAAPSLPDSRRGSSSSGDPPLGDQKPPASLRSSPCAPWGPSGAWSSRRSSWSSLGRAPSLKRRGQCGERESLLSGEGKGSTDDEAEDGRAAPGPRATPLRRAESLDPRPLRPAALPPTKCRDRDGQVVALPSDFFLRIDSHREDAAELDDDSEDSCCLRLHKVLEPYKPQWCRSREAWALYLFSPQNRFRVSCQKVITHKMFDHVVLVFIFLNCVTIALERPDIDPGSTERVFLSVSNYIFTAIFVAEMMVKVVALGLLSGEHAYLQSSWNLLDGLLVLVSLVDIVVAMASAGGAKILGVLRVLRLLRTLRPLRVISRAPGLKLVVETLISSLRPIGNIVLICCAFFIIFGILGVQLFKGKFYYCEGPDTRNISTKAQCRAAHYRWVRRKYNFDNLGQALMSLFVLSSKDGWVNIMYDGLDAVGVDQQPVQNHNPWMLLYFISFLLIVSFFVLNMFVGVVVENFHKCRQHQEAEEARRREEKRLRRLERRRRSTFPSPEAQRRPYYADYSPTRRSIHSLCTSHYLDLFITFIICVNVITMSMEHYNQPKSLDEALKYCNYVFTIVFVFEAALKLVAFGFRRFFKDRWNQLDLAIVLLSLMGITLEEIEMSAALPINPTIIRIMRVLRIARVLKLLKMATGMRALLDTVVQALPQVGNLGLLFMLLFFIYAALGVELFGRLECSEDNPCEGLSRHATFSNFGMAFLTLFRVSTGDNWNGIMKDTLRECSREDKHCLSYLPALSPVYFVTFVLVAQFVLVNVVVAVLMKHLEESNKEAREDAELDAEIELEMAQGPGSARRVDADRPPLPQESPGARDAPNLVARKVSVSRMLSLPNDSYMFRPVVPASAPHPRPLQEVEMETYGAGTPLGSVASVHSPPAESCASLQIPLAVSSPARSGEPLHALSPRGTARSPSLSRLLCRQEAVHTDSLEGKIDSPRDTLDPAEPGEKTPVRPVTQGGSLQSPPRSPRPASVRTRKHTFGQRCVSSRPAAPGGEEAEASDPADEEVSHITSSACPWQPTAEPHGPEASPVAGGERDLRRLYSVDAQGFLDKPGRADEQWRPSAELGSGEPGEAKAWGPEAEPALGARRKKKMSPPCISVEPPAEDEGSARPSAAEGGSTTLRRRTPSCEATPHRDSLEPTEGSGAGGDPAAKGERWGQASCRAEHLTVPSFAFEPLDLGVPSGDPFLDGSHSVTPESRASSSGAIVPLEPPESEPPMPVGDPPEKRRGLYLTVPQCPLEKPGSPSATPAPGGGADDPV

- EC50 [7]: 4 µM (active)
Compound: CCC(C)CN1C[C@@H]2C(CNC(=O)c3cc(Cl)cc(Cl)c3)[C@@H]2C1 (stereo not given in full)

- IC50 [12]: > 25 µM (inactive)
- IC50 [13]: 15.8 µM (inactive)
- IC50 [14]: > 25 µM (inactive)
- IC50 [15]: 13.8 µM (inactive)
Compound: Cc1ccc(S(C)(=O)=O)c(C)c1NC(=O)c1ccc(-c2cc(Cl)ccc2Cl)o1

The next lines start with the compound.

Compound: CC(=O)Oc1ccc(CSc2nnc(-c3ccccn3)n2Cc2ccco2)cc1
- EC50 [1]: > 32 µM (inactive)
- EC50 [2]: > 32 µM (inactive)
- EC50 [3]: > 64 µM (inactive)
- EC50 [4]: > 20 µM (inactive)

Compound: c1ccc(CC2CCN(c3ncnc4scc(-c5cccs5)c34)CC2)cc1
- IC50 [5]: 16.7 µM (inactive)
- IC50 [6]: > 55.7 µM (inactive)

Compound: O=C(Nc1ccc(F)cc1F)C1CC2CCC1C2 (stereo not given)
- EC50 [8]: 10 µM (active)

Compound: COc1ccc(S(=O)(=O)N2CCCCCC2)cc1C(=O)OCc1c(C)noc1C
- IC50 [9]: > 79.4 µM (inactive)
- IC50 [10]: > 79.4 µM (inactive)
- IC50 [11]: > 79.4 µM (inactive)
